Experimental data reported in PMC8424689 (ACS infectious diseases, 2021).

Target: SARS-CoV-2 main protease (M^pro) (Severe acute respiratory syndrome coronavirus 2, UniProt P0DTD1)

Going from RVVKLQ/ANELMP [nsp8/9 N1′A] to RVVKLQ/NAELMP [nsp8/9 N2′A], the “Fold change = (kcat/KM) nsp8/9 analog /(kcat/KM) nsp8/9” value falls from 2.9 to 2.1.

Compared with RVVKLQ/NDELMP [nsp8/9 N2′D], RVVKLQ/NNELMP [nsp8/9] is higher in “Fold change = (kcat/KM) nsp8/9 analog /(kcat/KM) nsp8/9” value: 0.4 for the first, 1.0 for the second.

Going from RVVKLQ/ANELMP [nsp8/9 N1′A] to RVVKLQ/NAELMP [nsp8/9 N2′A], the Km rises from 22 ± 3 µM to 46 ± 5 µM (2.1-fold).

Compared with RVVKLQ/NDELMP [nsp8/9 N2′D], RVVKLQ/NNELMP [nsp8/9] is 1.9-fold higher in Km: 19 ± 1 µM for the first, 36 ± 6 µM for the second.

TSAVLQ/SGFRKM [nsp4/5] was tested, and the Km was 41 ± 9 µM.

Compared with RVVKLQ/ANELMP [nsp8/9 N1′A], RVVKLQ/NAELMP [nsp8/9 N2′A] is higher in kcat: 0.022 ± 0.001 S^−1 for the first, 0.034 ± 0.002 S^−1 for the second.

Compared with RVVKLQ/NDELMP [nsp8/9 N2′D], RVVKLQ/NNELMP [nsp8/9] is higher in kcat: 0.0029 ± 0.0001 S^−1 for the first, 0.013 ± 0.001 S^−1 for the second.

Substance TSAVLQ/SGFRKM [nsp4/5] has a kcat of 0.52 ± 0.07 S^−1.

For RVVKLQ/ANELMP [nsp8/9 N1′A], the “kcat/KM (catalytic efficiency)” value was 1.0 ± 0.1 × 10^3 M^−1 s^−1.
With RVVKLQ/NAELMP [nsp8/9 N2′A] the “kcat/KM (catalytic efficiency)” value was 7.5 ±0.8 × 10^2 M^−1 s^−1.
In the case of RVVKLQ/NDELMP [nsp8/9 N2′D], the “kcat/KM (catalytic efficiency)” value is reported as 1.6 ± 1.2 × 10^2 M^−1 s^−1.
RVVKLQ/NNELMP [nsp8/9] was tested, and the “kcat/KM (catalytic efficiency)” value was 3.6 ± 0.7 × 10^2 M^−1 s^−1.
With TSAVLQ/SGFRKM [nsp4/5] the “kcat/KM (catalytic efficiency)” value was 1.3 ± 0.3 × 10^4 M^−1 s^−1.

With TSAVLQ/SGFRKM [nsp4/5] the “fold difference in kcat/KM, nsp4/5 versus nsp8/9” value was 36 fold.
